Laboratory results from PMC10225205 (Cancer Medicine, 2023).
Values joined by “and” are separate entries in the source; they are usually repeats but may differ in a detail not shown here. Equal entries are not always repeated.

Key:
[1] = tested on: advanced solid tumors; assay: FIGHT-102 efficacy, investigator-assessed RECIST 1.1; format: in vivo, human; set-up: key to Best overall response: PR, partial response; SD, stable disease; PD, progressive disease; NE, not evaluable
Protocol: Efficacy assessments occurred at screening (baseline scan) and on Day 15 of every third cycle with a ±2‐day window. Tumor status was assessed by the investigator using appropriate disease‐specific techniques. For solid tumors, the Response Evaluation Criteria in Solid Tumors (RECIST) 1.1 criteria were used,[19] and the recommended method for measuring tumor burden was computed tomography scan. Alternative modalities compatible with RECIST 1.1 could be used at the investigator's discretion provided they were used consistently throughout the study.
Both the efficacy and the safety population included all patients who received at least 1 dose of study drug. The PK/pharmacodynamic population included all patients who received at least one dose of study drug and provided at least one postdose plasma sample for PK/pharmacodynamic measurement. No comparisons are made between patients or against historical controls; only comparisons to pretreatment conditions were made.

[2] = FIGHT-102 pemigatinib plasma/urine pharmacokinetics (noncompartmental); details: for AUC(0-t) / AUC / Cmax / Vd/F / Tmax / half-life: human, in vivo, 13.5 mg; for AUC: AUCss,0-24h; for Vd/F: Vz/F; for Tmax: median; for half-life: t½
Protocol: Postdose samples were collected at 0.5, 1, 2, 4, 6, and 8 h on Day 1, and at 1 h on Day 14 of Cycle 1. For patients in the CD regimen, a postdose sample at 6 h on Day 14 was also collected.
Pharmacodynamic data were presented using summary statistics.

[3] = Part 1, 13.5 mg ID, breast cancer, local no alteration detected
[4] = Part 1, 13.5 mg ID, cholangiocarcinoma, central FGF1 amp, FGFR2 amp
[5] = Part 1, 13.5 mg ID, other (intrahepatic cholangiocarcinoma), central no alteration detected
[6] = Part 1, 13.5 mg ID, other (lower bile duct cancer), central FGF6 mutation (p.S143N)
[7] = Part 1, 18 mg ID, neuroendocrine cancer, local FGF6/23 amp
[8] = Part 1, 18 mg ID, other (intrahepatic cholangiocarcinoma), not tested
[9] = Part 2, 13.5 mg CD, breast cancer, local FGFR1 amp, FGFR3 mutation
[10] = Part 2, 13.5 mg CD, colorectal cancer, central FGFR1 amp
[11] = Part 2, 13.5 mg CD, gallbladder cancer, central FGF3/4/19 amp
[12] = Part 2, 13.5 mg CD, other (prostate cancer), central FGFR1 amp
[13] = Part 2, 13.5 mg CD, other (rectal cancer), central FGFR1 amp
[14] = Part 2, 13.5 mg CD, other (uterine cervix carcinoma), central FGFR2 amp
[15] = Part 2, 13.5 mg CD, urothelial tract/bladder cancer (bladder cancer), central FGF3/4/19 amp, FGFR3 alteration
[16] = Part 2, 13.5 mg CD, urothelial tract/bladder cancer (renal pelvis cancer), central FGF3/4/19 amp
[17] = Part 2, 13.5 mg ID, breast cancer, central FGFR1 amp
[18] = Part 2, 13.5 mg ID, cholangiocarcinoma, central FGFR2 alteration, local FGFR2 translocation
[19] = Part 2, 13.5 mg ID, cholangiocarcinoma, central FGFR3 mutation
[20] = Part 2, 13.5 mg ID, colorectal cancer, central FGFR1 amp
[21] = Part 2, 13.5 mg ID, esophageal cancer, central FGF3/4/12/19 amp
[22] = Part 2, 13.5 mg ID, esophageal cancer, central FGFR1 amp
[23] = Part 2, 13.5 mg ID, lung cancer (NSCLC), central FGFR1 amp, FGF12 amp
[24] = Part 2, 13.5 mg ID, other (apocrine sweat gland carcinoma), central FGFR2 amp
[25] = Part 2, 13.5 mg ID, other (intrahepatic cholangiocarcinoma), central FGFR3 fusion
[26] = Part 2, 13.5 mg ID, other (urachal cancer), central FGF3 amp
[27] = Part 2, 13.5 mg ID, urothelial tract/bladder cancer (bladder cancer), central FGFR3 mutation (p.Y373C)
[28] = Part 2, 13.5 mg ID, urothelial tract/bladder cancer (renal pelvis cancer), central FGF3/4/19 amp
[29] = geometric mean (CV%), C1D14, 13.5 mg ID or CD, n 33
[30] = mean ± SD, C1D14, 13.5 mg ID or CD, n 33

Compound: CCN1C(=O)N(c2c(F)c(OC)cc(OC)c2F)Cc2cnc3[nH]c(CN4CCOCC4)cc3c21 [Pemigatinib]
- Best overall response of complete response or PR ([1]; Part 1): no patient
- Median best percentage change from baseline in target lesion size ([1]; Part 1): −2.6%
- Best overall response stable disease ([1]; Part 1, 7 patients): 50.0%
- Best overall response ([1]; Part 1, 9 mg ID, gastric cancer): SD
- Best change in sum of target lesion diameters ([1]; Part 1, 9 mg ID, gastric cancer, central and local not tested): –13.3%
- Best overall response ([1]; Part 1, 9 mg ID, other (epithelioid hemangioendothelioma)): SD
- Best change in sum of target lesion diameters ([1]; Part 1, 9 mg ID, other (epithelioid hemangioendothelioma), central and local not tested): –12.6%
- Best overall response ([1]; Part 1, 9 mg ID, other (medulloblastoma), local no alteration detected): PD
- Best change in sum of target lesion diameters [1, 3]: 28.1%
- Best overall response [1, 3]: PD
- Best change in sum of target lesion diameters [1, 4]: –8.5%
- Best overall response [1, 4]: SD
- Best overall response ([1]; Part 1, 13.5 mg ID, colorectal cancer, FGFR1 amp): PD
- Best change in sum of target lesion diameters ([1]; Part 1, 13.5 mg ID, colorectal cancer, central and local FGFR1 amp): –21.1%
- Best overall response ([1]; Part 1, 13.5 mg ID, lung cancer (NSCLC)): SD
- Best change in sum of target lesion diameters ([1]; Part 1, 13.5 mg ID, lung cancer (NSCLC), not tested): –29.0%
- Best change in sum of target lesion diameters [1, 5]: 4.4%
- Best overall response [1, 5]: SD
- Best change in sum of target lesion diameters [1, 6]: –5.1%
- Best overall response [1, 6]: SD
- Best change in sum of target lesion diameters [1, 7]: 37.5%
- Best overall response [1, 7]: PD
- Best change in sum of target lesion diameters ([1]; Part 1, 18 mg ID, other (intrahepatic cholangiocarcinoma), central none, local FGFR2 fusion): 0%
- Best overall response ([1]; Part 1, 18 mg ID, other (intrahepatic cholangiocarcinoma), local FGFR2 fusion): SD
- Best change in sum of target lesion diameters [1, 8]: 16.7%
- Best overall response [1, 8]: PD
- Best overall response ([1]; Part 1, 18 mg ID, other (pancreatic head cancer)): PD
- Best change in sum of target lesion diameters ([1]; Part 1, 18 mg ID, other (pancreatic head cancer), local no alteration detected): 1.0%
- Median of best percentage change from baseline in target lesion size ([1]; Part 2): 15.2%
- Patients achieving PR ([1]; Part 2, 13.5 mg CD): 4 n
- Patients achieving PR ([1]; Part 2, 13.5 mg ID): 1 n
- Partial response ([1]; Part 2, 5 patients): 16.7%
- Stable disease ([1]; Part 2, 6 patients): 20%
- Best change in sum of target lesion diameters [1, 9]: 6.4%
- Best overall response [1, 9]: NE
- Best overall response ([1]; Part 2, 13.5 mg CD, breast cancer, local FGFR2 amp (best change –26.2%)): SD
- Best overall response ([1]; Part 2, 13.5 mg CD, breast cancer, local FGFR2 amp (best change –44.4%)): PR
- Best change in sum of target lesion diameters ([1]; Part 2, 13.5 mg CD, breast cancer, local FGFR2 amp (patient with PR)): –44.4%
- Best change in sum of target lesion diameters ([1]; Part 2, 13.5 mg CD, breast cancer, local FGFR2 amp (patient with SD)): –26.2%
- Best change in sum of target lesion diameters ([1]; Part 2, 13.5 mg CD, cholangiocarcinoma, central none, local FGFR2 translocation): –30.6%
- Best overall response ([1]; Part 2, 13.5 mg CD, cholangiocarcinoma, local FGFR2 translocation): PR
- Best change in sum of target lesion diameters [1, 10]: 26.5%
- Best overall response [1, 10]: PD
- Best change in sum of target lesion diameters ([1]; Part 2, 13.5 mg CD, colorectal cancer, central none, local FGF19 amp): 41.0%
- Best overall response ([1]; Part 2, 13.5 mg CD, colorectal cancer, local FGF19 amp): PD
- Best overall response ([1]; Part 2, 13.5 mg CD, esophageal cancer, FGFR3 translocation: fusion): SD
- Best change in sum of target lesion diameters ([1]; Part 2, 13.5 mg CD, esophageal cancer, central and local FGFR3 translocation: fusion): –4.3%
- Best change in sum of target lesion diameters [1, 11]: –43.8%
- Best overall response [1, 11]: PR
- Best change in sum of target lesion diameters [1, 12]: 15.2%
- Best overall response [1, 12]: PD
- Best change in sum of target lesion diameters [1, 13]: 0.0%
- Best overall response [1, 13]: SD
- Best change in sum of target lesion diameters [1, 14]: 22.7%
- Best overall response [1, 14]: PD
- Best change in sum of target lesion diameters [1, 15]: –37.2%
- Best overall response [1, 15]: PR
- Best change in sum of target lesion diameters [1, 16]: 12.1%
- Best overall response [1, 16]: PD
- Best change in sum of target lesion diameters [1, 17]: 18.1%
- Best overall response [1, 17]: PD
- Best change in sum of target lesion diameters [1, 18]: –13.8%
- Best overall response [1, 18]: SD
- Best change in sum of target lesion diameters [1, 19]: 30.9%
- Best overall response [1, 19]: PD
- Best change in sum of target lesion diameters [1, 20]: 44.7%
- Best overall response [1, 20]: PD
- Best change in sum of target lesion diameters [1, 21]: 34.9%
- Best overall response [1, 21]: PD
- Best overall response ([1]; Part 2, 13.5 mg ID, esophageal cancer, central FGF3/4/19 amp, local FGF19 amp): PD
- Best change in sum of target lesion diameters [1, 22]: 6.5%
- Best overall response [1, 22]: SD
- Best change in sum of target lesion diameters ([1]; Part 2, 13.5 mg ID, esophageal cancer, central FGFR1 amp, FGF3/4/19 amp (first of two such patients)): 37.8%
- Best overall response ([1]; Part 2, 13.5 mg ID, esophageal cancer, central FGFR1 amp, FGF3/4/19 amp (first of two)): PD
- Best change in sum of target lesion diameters ([1]; Part 2, 13.5 mg ID, esophageal cancer, central FGFR1 amp, FGF3/4/19 amp (second of two such patients)): 3.0%
- Best overall response ([1]; Part 2, 13.5 mg ID, esophageal cancer, central FGFR1 amp, FGF3/4/19 amp (second of two)): PD
- Best change in sum of target lesion diameters ([1]; Part 2, 13.5 mg ID, gallbladder cancer, central none, local FGFR3 mutation): 25.0%
- Best overall response ([1]; Part 2, 13.5 mg ID, gallbladder cancer, local FGFR3 mutation): PD
- Best change in sum of target lesion diameters [1, 23]: 22.2%
- Best overall response [1, 23]: PD
- Best change in sum of target lesion diameters [1, 24]: –42.1%
- Best overall response [1, 24]: PR
- Best change in sum of target lesion diameters [1, 25]: 65.2%
- Best overall response [1, 25]: PD
- Best change in sum of target lesion diameters [1, 26]: 44.8%
- Best overall response [1, 26]: PD
- Best overall response ([1]; Part 2, 13.5 mg ID, pancreatic cancer (neuroendocrine), central FGFR1 amp): PD
- Best change in sum of target lesion diameters ([1]; Part 2, 13.5 mg ID, pancreatic cancer (neuroendocrine), central FGFR1 amp, local FGFR1 mutation (p.N577K)): 40.8%
- Best change in sum of target lesion diameters [1, 27]: –19.6%
- Best overall response [1, 27]: SD
- Best change in sum of target lesion diameters [1, 28]: 24.2%
- Best overall response [1, 28]: PD
- Median duration of response ([1]; responders, Part 2, 95% CI: 4.17, 14.95): 9.56 months
- tmax, median ([2]; C1D1, 13.5 mg ID or CD, n 36): 1 h
- CLss/F, geometric mean (CV%) ([2]; C1D14, 13.5 mg ID or CD, n 33): 10.2 (55.5) L/h and 10.2 L/h
- CLss/F, mean ± SD ([2]; C1D14, 13.5 mg ID or CD, n 33): 11.6 ± 6.52 L/h
- Cmin,ss, geometric mean (CV%) ([2]; C1D14, 13.5 mg ID or CD, n 33): 56.0 (61.0) nM
- Cmin,ss, mean ± SD ([2]; C1D14, 13.5 mg ID or CD, n 33): 66.2 ± 45.2 nM
- AUC(0-t) ([2]; AUC0-24h, geometric mean (CV%), C1D1, 13.5 mg ID or CD, n 36): 1.88 µM·h
- AUC(0-t) ([2]; AUC0-24h, mean ± SD, C1D1, 13.5 mg ID or CD, n 36): 2.02 ± 0.762 µM·h
- AUC(0-t) ([2]; AUClast, geometric mean (CV%), C1D1, 13.5 mg ID or CD, n 36): 1.85 µM·h
- AUC(0-t) ([2]; AUClast, mean ± SD, C1D1, 13.5 mg ID or CD, n 36): 1.99 ± 0.748 µM·h
- AUC [2, 29]: 2.72 µM·h
- AUC [2, 30]: 3.09 ± 1.68 µM·h
- Cmax ([2]; Cmax, geometric mean (CV%), C1D1, 13.5 mg ID or CD, n 36): 216 nM
- Cmax ([2]; Cmax, mean ± SD, C1D1, 13.5 mg ID or CD, n 36): 260 ± 136 nM
- Cmax ([2]; Cmax,ss, geometric mean (CV%), C1D14, 13.5 mg ID or CD, n 33): 195 nM
- Cmax ([2]; Cmax,ss, mean ± SD, C1D14, 13.5 mg ID or CD, n 33): 238 ± 139 nM
- Vd/F [2, 29]: 201 L
- Vd/F [2, 30]: 258 ± 216 L
- Tmax ([2]; C1D1, 13.5 mg ID or CD, n 36): 1.43 h
- Tmax ([2]; C1D14, 13.5 mg ID or CD, n 33): 1.02 h
- half-life [2, 29]: 13.6 h
- half-life [2, 30]: 15.4 ± 9.03 h
